# From PMC9065035, “Structural basis for the synthesis of the core 1 structure by C1GalT1” (Nature Communications, 2022)
# “And” between values parts separate entries of the source, which are not always exact repeats. Equal values may be shown once. Read-outs that look alike come from different tables or passages of the source. Peptide text beside a SMILES is read from it. * marks the point of attachment. αGalNAc = CC(=O)N[C@@H]1[C@@H](O)[C@@H](O)[C@@H](CO)O[C@@H]1*
# Legend:
# DmC1GalT1^T43-Q388 [1] = biological target: T1, DmC1GalT1^T43-Q388 (Drosophila melanogaster, UniProt Q7K237); assay: UDP-Glo glycosylation kinetics of DmC1GalT1 T43-Q388
# T1 sequence (Q7K237 43-388): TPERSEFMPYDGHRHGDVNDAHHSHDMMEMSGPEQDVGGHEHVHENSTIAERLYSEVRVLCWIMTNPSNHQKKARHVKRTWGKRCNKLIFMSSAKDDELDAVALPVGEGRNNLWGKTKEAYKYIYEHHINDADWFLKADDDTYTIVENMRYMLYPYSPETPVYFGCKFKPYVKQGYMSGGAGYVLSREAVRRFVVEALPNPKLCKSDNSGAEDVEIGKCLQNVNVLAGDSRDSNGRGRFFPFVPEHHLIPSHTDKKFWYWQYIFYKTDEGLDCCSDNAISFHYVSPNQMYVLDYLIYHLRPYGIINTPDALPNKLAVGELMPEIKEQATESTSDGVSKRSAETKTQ
# DmC1GalT1^T43-Q388 [2] = biological target: T1, DmC1GalT1^T43-Q388; assay: Isothermal titration calorimetry (ITC); type: binding; design: made in house
# Method: ITC was used to characterize the interaction of DmC1GalT1^T43-Q388 with UDP, APDT*RP with and without UDP, APDTRP with UDP, and P4/P7 with and without UDP. All experiments were carried out in an Auto-iTC200 (Microcal, GE Healthcare) at 20 °C. The titration of DmC1GalT1^T43-Q388 with UDP was carried out at 100 μM of the enzyme with 800 μM UDP in 25 mM TRIS pH 7.5, 150 mM NaCl and 1 mM MnCl2. The titrations with APDT*RP and P4/P7 in the absence of UDP were carried out at 60 μM of the enzyme with 2 mM P4/P7 in 25 mM TRIS pH 7.5, 150 mM NaCl and 1 mM MnCl2. To determine the Kds for APDT*RP, APDTRP and P4/P7 under an excess of UDP, the experiments were made in 25 mM TRIS pH 7.5, 150 mM NaCl, 1 mM UDP and 1 mM MnCl2. The concentration of the enzyme was 60 μM for the titrations of APDT*RP and APDTRP and 50 μM for the titration with P4/P7. The concentration of the (glyco)peptides was 2 mM in all the ITC experiments. The experiments were performed in duplicate. Data integration, correction and analysis were carried out in Origin 7 (Microcal). The data were fit to a one-site equilibrium-binding model. Stoichiometry (n) of binding in all cases was ~1:1 except for UDP whose n = 0.4.
# DmC1GalT1^T43-Q388 [3] = biological target: T1, DmC1GalT1^T43-Q388; assay: STD NMR experiments; type: binding; design: made in house
# Method: STD NMR experiments were performed using a 1:35 molar ratio, defined by 20 μM DmC1GalT1^T43-Q388 and 710 μM ligands (α-O-methyl-GalNAc, and (glyco)peptides), and 25 mM Tris(D11)-DCl buffer, pD 7.5, with 150 mM NaCl and 150 µM MnCl2 in D2O. […] In the presence of 150 µM MnCl2, strong paramagnetic relaxation enhancements are observed for UDP, which prevents the observation of UDP proton signals in the NMR spectra. […] STD NMR spectra (stddiffesgp pulse sequence from Bruker pulse program library) were acquired with 1728 scans and 64 K data points, in a spectral window of 12335.53 Hz centered at 2818 Hz. Selective saturation (on resonance) was performed by irradiating at 7 and/or −0.5 ppm (depending if the ligand contains or not aromatic residues) using a series of 40 Eburp2.1000-shaped (from Bruker shaped pulses library) 90° pulses (50 ms) for a total saturation time of 2 s, and a relaxation delay of 4 s. For the reference spectrum (off resonance), the samples were irradiated at 100 ppm. Proper control experiments were performed for each ligand in the absence of protein and residual STD signals of the methyl groups of Ala/Thr were observed. […] Protein control experiments were also accomplished using DmC1GalT1^T43-Q388 in absence of a ligand and also subtracted from STD experiment. The STD spectrum (ISTD) was obtained by subtracting the on-resonance spectrum (Ion) to the off-resonance spectrum (Ioff). The % of STD (ISTD/Ioff × 100) was estimated by comparing the intensity of the signals in the STD spectrum (ISTD) with the signal intensities of the reference spectrum (Ioff). The STD amplification factor (STDAF) was also estimated by multiplying the % STD values by the ligand excess, which in the case of our experiments was 35 for every ligand. To determine the STD-derived epitope map the relative % of STD were calculated by setting to 100% the STD signal of the proton with the highest STD intensity and calculating the others accordingly (Supplementary Tables 2–4). Some protons were not able to be assessed with accuracy due to the use of water suppression or low signal/noise ratio and display a blue circle in the STD-derived epitope maps. Moreover, the resonances overlapped on the ^1H-NMR spectrum were considered in STD estimation and are labelled as *.
# [4] = Activity of DmC1GalT1 mutants (UDP-Glo); type: biochemical, Drosophila melanogaster; settings: 500 µM UDP-Gal, 500 µM APDT*RP
# From the text: The DNA sequence encoding amino acid residues of the DmC1GalT1 (aa T43-Q388) was codon optimized and synthesized by GenScript (USA) for expression in HEK293 cells (GIBCO). The construct, containing at the 5′-end a recognition sequence for AgeI, and at the 3′-end a recognition sequence for KpnI, was cloned into a pHLSec plasmid that contained a sequence encoding a 6xHis tag at the 3′-end followed by a stop codon, rendering the vector pHLSec-DmC1GalT1-6His. The cloning of the construct into pHLSec was performed by GenScript. All mutants in DmC1GalT1 (R152A, Y213A, Y218A, D255A, W300A and Y325A) were generated following a standard site-directed mutagenesis protocol by GenScript using the vector pHLSec-DmC1GALT1-6His. pHLSec-DmC1GalT1-6His and all the plasmids encoding for the different mutants were transfected into HEK293 cell line as described below. For DNA amplification, all plasmids were transformed in E. coli DH5α cells and extracted with PureLink™ Expi Endotoxin-Free Giga Plasmid Purification Kit (Invitrogen) according to the manufacturer’s instructions. Cells were grown in suspension in a humidified 37 °C and 8% CO2 incubator with rotation at 125 rpm. Transfection was performed at a cell density of 2.5 × 10^6 cell/mL in fresh media F17 serum-free media (Gibco) with 2% Glutamax and 0.1% Kolliphor® P 188. For each 150 mL of culture, 450 μg of the plasmid (1 μg/μL) was mixed with 135 μL of sterilized 1.5 M NaCl. This mixture was added to each 150 mL cell culture flask and incubated for 5 min in the incubator. […] Cells were diluted 1:1 with pre-warmed media supplemented with valproic acid 24 h post-transfection to a final concentration of 2.2 mM. Then, cells were harvested 6 days post-transfection by spinning down at 300 × g for 5 min, after which the supernatants were collected and centrifuged at 4000 × g for 15 min. Supernatant was dialyzed against buffer A and loaded into a His-Trap Column (GE Healthcare). Protein was eluted with an imidazol gradient in buffer A from 10 mM up to 400 mM. Buffer exchange to buffer C was carried out using a HiPrep 26/10 Desalting Column (GE Healthcare). The isolated DmC1GalT1-His and its mutants were then loaded in HiLoad 26/60 Superdex 75 Colum (GE Healthcare), previously equilibrated with buffer C.
# [5] = UDP titration, 1 mM MnCl2, 20 °C
compound,measurement,setting,value
CC(=O)N[C@H]1[C@@H](O[C@H](C)[C@H](NC(=O)[C@H](C)NC(=O)[C@H](C)NC(=O)[C@@H]2CCCN2)C(=O)NCC(=O)N2CCC[C@H]2C(=O)N[C@@H](Cc2ccc(O)cc2)C(N)=O)O[C@H](CO)[C@H](O)[C@@H]1O [P4] (H-PAAT(αGalNAc)GPY-NH2),kcat app/Km app (catalytic efficiency),"DmC1GalT1^T43-Q388 [1]; acceptor varied, 500 µM UDP-Gal, 500 nM enzyme, pH 7.5, 30 min 37 °C, ± standard error, n = 2",1130 ± 100 M⁻¹ s⁻¹ and 1127 M⁻¹ s⁻¹
same,Kd,"DmC1GalT1^T43-Q388 [2]; Kd, absence of UDP, 2 mM glycopeptide, 60 µM enzyme, 25 mM TRIS pH 7.5, 150 mM NaCl, 1 mM MnCl2, 20 °C, one-site fit ± fit error, n = 2",41 µM
CO[C@H]1O[C@H](CO)[C@H](O)[C@H](O)[C@H]1NC(C)=O [α-O-methyl-GalNAc],activity as acceptor substrate,DmC1GalT1^T43-Q388 [1]; 500 µM UDP-Gal,kinetic parameters could not be determined
same,Vmax app,"DmC1GalT1^T43-Q388 [1]; acceptor varied, 500 µM UDP-Gal, 500 nM enzyme, pH 7.5, 30 min 37 °C, Michaelis–Menten fit ± standard error, n = 2",548.9 nmol/min/mg
same,initial activity relative to that achieved with APDT*RP,DmC1GalT1^T43-Q388 [1]; at a saturating concentration of the glycopeptides (~500 µM),half
same,Km,"DmC1GalT1^T43-Q388 [1]; read-out: Km app, acceptor substrate varied (P1–P7 12.5–500 µM; APDT*RP/APDS*RP 12.5–1000 µM; α-O-methyl-GalNAc up to 2 mM), 500 µM UDP-Gal, 500 nM enzyme, 25 mM Tris pH 7.5, 150 mM NaCl, 50 µM MnCl2, 1 mg/ml BSA, 30 min 37 °C, Michaelis–Menten fit ± standard error, n = 2",10.3 mM
same,saturation of the enzyme,DmC1GalT1^T43-Q388 [1]; up to 2 mM substrate,did not reach saturation up to 2 mM
same,"STDAF, CH3 (NHAc) GalNAc",DmC1GalT1^T43-Q388 [3]; on resonance 7 ppm,20.0
same,"STDAF, H2 GalNAc",DmC1GalT1^T43-Q388 [3]; on resonance 7 ppm,45.0
same,"STDAF, H3 GalNAc",DmC1GalT1^T43-Q388 [3]; on resonance 7 ppm,24.9
same,"STDAF, H4 GalNAc",DmC1GalT1^T43-Q388 [3]; on resonance 7 ppm,27.9
same,"STDAF, H5-GalNAc",DmC1GalT1^T43-Q388 [3]; on resonance 7 ppm,25.8
same,"STDAF, H6-GalNAc",DmC1GalT1^T43-Q388 [3]; on resonance 7 ppm,29.5
same,"STDAF, OMe",DmC1GalT1^T43-Q388 [3]; on resonance 7 ppm,16.6
same,"relative % STD, CH3 (NHAc) GalNAc",DmC1GalT1^T43-Q388 [3]; on resonance 7 ppm,44%
same,"relative % STD, H3 GalNAc",DmC1GalT1^T43-Q388 [3]; on resonance 7 ppm,55%
same,"relative % STD, H4 GalNAc",DmC1GalT1^T43-Q388 [3]; on resonance 7 ppm,62%
same,"relative % STD, H5-GalNAc",DmC1GalT1^T43-Q388 [3]; on resonance 7 ppm,57%
same,"relative % STD, H6-GalNAc",DmC1GalT1^T43-Q388 [3]; on resonance 7 ppm,66%
same,"relative % STD, OMe",DmC1GalT1^T43-Q388 [3]; on resonance 7 ppm,37%
same,"STDAF, CH3 (NHAc) GalNAc",DmC1GalT1^T43-Q388 [3]; on resonance -0.5 ppm,18.9
same,"STDAF, H3 GalNAc",DmC1GalT1^T43-Q388 [3]; on resonance -0.5 ppm,20.0
same,"STDAF, H4 GalNAc",DmC1GalT1^T43-Q388 [3]; on resonance -0.5 ppm,28.7
same,"STDAF, H6-GalNAc",DmC1GalT1^T43-Q388 [3]; on resonance -0.5 ppm,23.6
same,"STDAF, OMe",DmC1GalT1^T43-Q388 [3]; on resonance -0.5 ppm,17.6
same,"relative % STD, CH3 (NHAc) GalNAc",DmC1GalT1^T43-Q388 [3]; on resonance -0.5 ppm,61%
same,"relative % STD, H3 GalNAc",DmC1GalT1^T43-Q388 [3]; on resonance -0.5 ppm,65%
same,"relative % STD, H4 GalNAc",DmC1GalT1^T43-Q388 [3]; on resonance -0.5 ppm,93%
same,"relative % STD, H6-GalNAc",DmC1GalT1^T43-Q388 [3]; on resonance -0.5 ppm,77%
same,"relative % STD, OMe",DmC1GalT1^T43-Q388 [3]; on resonance -0.5 ppm,57%
same,"STDAF, H2 GalNAc","DmC1GalT1^T43-Q388 [3]; on resonance -0.5 ppm, […] UDP, 150 µM MnCl2, 298 K",30.7
same,STD response,"DmC1GalT1^T43-Q388 [3]; presence of UDP ([…]) and 150 µM MnCl2, 20 µM enzyme, 710 µM ligand",clearly presented STD enhancements
Y325A: DmC1GalT1 Ala mutant of Tyr325,decrease in activity with respect to the WT,[4],25 fold
R152A: DmC1GalT1 Ala mutant of Arg152,decrease in activity with respect to the WT,[4],15 fold
Y213A: DmC1GalT1 Ala mutant of Tyr213,decrease in activity with respect to the WT,[4],25 fold
O=c1ccn([C@@H]2O[C@H](COP(=O)(O)OP(=O)(O)O)[C@@H](O)[C@H]2O)c(=O)[nH]1 [UDP],Kd,DmC1GalT1^T43-Q388 [2],18.4 µM
same,"binding, fold stronger than binding of APDT*RP","DmC1GalT1^T43-Q388 [2]; ITC, relative to APDT*RP",~ 9.5 fold
same,n (stoichiometry of binding),DmC1GalT1^T43-Q388 [2]; [5],0.4
same,ΔH,DmC1GalT1^T43-Q388 [2]; [5],-4.264 ± 0.471 kcal/mol
